{"source": "patent US20110015080A1", "about": "“Solution-based methods for RNA expression profiling” (MASSACHUSETTS INSTITUTE OF TECHNOLOGY, priority 2005, published 2011)", "tested_on": "HL60 (human promyelocytic leukemia) cells", "assay": "LMA-FlexMAP bead-based gene expression signature analysis of total RNA from HL60 cells treated with tretinoin or DMSO (ninety transcripts); for NM 000884 LUA#81 FlexMAP signal: test concentration or dose not given here; for NM 001469 LUA#79 FlexMAP signal: test concentration or dose not given here", "note": "“And” between values parts separate entries of the source, which are not always exact repeats. Identical values can stand only once.", "data": [{"smiles": "CC1=C(/C=C/C(C)=C/C=C/C(C)=C/C(=O)O)C(C)(C)CCC1", "note": "[tretinoin, all-trans-retinoic acid]", "values": [{"measurement": "ACTB LUA#91 FlexMAP signal", "setting": "Experiment 1, tretinoin-treated HL60, transcript ACTB, replicate columns", "value": "2313 and 2609 and 1929 and 2483 and 818 and 2425.5 and 2563 and 1173 and 2347 and 2296.5"}, {"measurement": "GAPDH_3 LUA#95 FlexMAP signal", "setting": "Experiment 1, tretinoin-treated HL60, transcript GAPDH_3, replicate columns", "value": "2580 and 2982 and 2428 and 2979 and 1102.5 and 2911 and 2912 and 1645 and 2823 and 2559"}, {"measurement": "GAPDH_5 LUA#93 FlexMAP signal", "setting": "Experiment 1, tretinoin-treated HL60, transcript GAPDH_5, replicate columns", "value": "1299 and 1629 and 998.5 and 1419 and 378.5 and 1433 and 1505.5 and 632 and 1469 and 1347"}, {"measurement": "GAPDH_M LUA#94 FlexMAP signal", "setting": "Experiment 1, tretinoin-treated HL60, transcript GAPDH_M, replicate columns", "value": "1360.5 and 1575 and 1134 and 1511.5 and 460 and 1520 and 1502 and 698.5 and 1462 and 1334"}, {"measurement": "NM_000147 LUA#29 FlexMAP signal", "setting": "Experiment 1, tretinoin-treated HL60, transcript NM_000147, replicate columns", "value": "764 and 894 and 573 and 861 and 195.5 and 822.5 and 850 and 302 and 783 and 763"}, {"measurement": "NM_000211 LUA#39 FlexMAP signal", "setting": "Experiment 1, tretinoin-treated HL60, transcript NM_000211, replicate columns", "value": "1294.5 and 1488 and 1125 and 1420 and 454.5 and 1349 and 1366.5 and 682 and 1361 and 1315"}, {"measurement": "NM_000250 LUA#87 FlexMAP signal", "setting": "Experiment 1, tretinoin-treated HL60, transcript NM_000250, replicate columns", "value": "164 and 198 and 194 and 74 and 177 and 187 and 95.5 and 173 and 166"}, {"measurement": "NM_000414 LUA#22 FlexMAP signal", "setting": "Experiment 1, tretinoin-treated HL60, transcript NM_000414, replicate columns", "value": "372.5 and 470.5 and 270 and 442 and 100 and 408.5 and 415 and 145 and 402.5 and 373"}, {"measurement": "NM_000433 LUA#28 FlexMAP signal", "setting": "Experiment 1, tretinoin-treated HL60, transcript NM_000433, replicate columns", "value": "536.5 and 647 and 442.5 and 640 and 144 and 605 and 622 and 228.5 and 564 and 532"}, {"measurement": "NM_000584 LUA#30 FlexMAP signal", "setting": "Experiment 1, tretinoin-treated HL60, transcript NM_000584, replicate columns", "value": "1765 and 2115 and 1464 and 1938.5 and 476 and 1981.5 and 1945 and 799.5 and 1938 and 1717"}, {"measurement": "NM_000884 LUA#81 FlexMAP signal", "setting": "Experiment 1, tretinoin-treated HL60, transcript NM_000884, replicate columns", "value": "799 (2×) and 946 and 676 and 871.5 and 250 and 871 and 865 and 389 and 830.5"}, {"measurement": "NM_001034 LUA#67 FlexMAP signal", "setting": "Experiment 1, tretinoin-treated HL60, transcript NM_001034, replicate columns", "value": "191 and 243 and 157 and 225 and 73 and 209 and 212.5 and 92 and 219 and 185"}, {"measurement": "NM_001101 LUA#34 FlexMAP signal", "setting": "Experiment 1, tretinoin-treated HL60, transcript NM_001101, replicate columns", "value": "2722 and 3119.5 and 2773 and 2969.5 and 1490 and 2968.5 and 2890 and 1977 and 2893.5 and 2694"}, {"measurement": "NM_001469 LUA#79 FlexMAP signal", "setting": "Experiment 1, tretinoin-treated HL60, transcript NM_001469, replicate columns", "value": "1076 and 1221 and 809 and 1179 (2×) and 284 and 1191 and 463 and 1140.5 and 1077"}, {"measurement": "NM_001498 LUA#18 FlexMAP signal", "setting": "Experiment 1, tretinoin-treated HL60, transcript NM_001498, replicate columns", "value": "361 and 424 and 279 and 402 and 96 and 374 and 412 and 140 and 360 and 335.5"}, {"measurement": "NM_001684 LUA#23 FlexMAP signal", "setting": "Experiment 1, tretinoin-treated HL60, transcript NM_001684, replicate columns", "value": "69 and 68 and 54 and 66.5 and 41 and 65 (2×) and 43 and 61 and 63"}, {"measurement": "NM_001948 LUA#84 FlexMAP signal", "setting": "Experiment 1, tretinoin-treated HL60, transcript NM_001948, replicate columns", "value": "58 and 75 and 61 and 73 and 47 and 63 and 71 and 51 and 76 and 66"}, {"measurement": "NM_002166 LUA#25 FlexMAP signal", "setting": "Experiment 1, tretinoin-treated HL60, transcript NM_002166, replicate columns", "value": "154 and 180 and 124.5 and 159.5 and 61 and 168 and 159 and 79.5 and 156.5 and 152"}, {"measurement": "NM_002467 LUA#90 FlexMAP signal", "setting": "Experiment 1, tretinoin-treated HL60, transcript NM_002467, replicate columns", "value": "1030 and 801 and 702 and 736 and 256 and 792.5 and 842.5 and 399 and 957 and 976"}, {"measurement": "NM_002468 LUA#40 FlexMAP signal", "setting": "Experiment 1, tretinoin-treated HL60, transcript NM_002468, replicate columns", "value": "418 and 492 and 325 and 448.5 and 121 and 496.5 and 473 and 174.5 and 426.5 and 399.5"}, {"measurement": "NM_002539 LUA#74 FlexMAP signal", "setting": "Experiment 1, tretinoin-treated HL60, transcript NM_002539, replicate columns", "value": "276 and 362 and 231 and 326 and 85 and 313 and 314.5 and 131 and 300 and 281.5"}, {"measurement": "NM_002624 LUA#36 FlexMAP signal", "setting": "Experiment 1, tretinoin-treated HL60, transcript NM_002624, replicate columns", "value": "1288 and 1492.5 and 1267 and 1418 and 576 and 1447 and 1402 and 820 and 1224.5"}, {"measurement": "NM_002664 LUA#38 FlexMAP signal", "setting": "Experiment 1, tretinoin-treated HL60, transcript NM_002664, replicate columns", "value": "2325 and 2761 and 2157 and 2552 and 892 and 2527 and 2504 and 1337 and 2394 and 2330"}, {"measurement": "NM_002970 LUA#42 FlexMAP signal", "setting": "Experiment 1, tretinoin-treated HL60, transcript NM_002970, replicate columns", "value": "1455 and 1683.5 and 1181 and 1595 and 400 and 1478 and 1584 and 651 and 1503 and 1459"}, {"measurement": "NM_002982 LUA#45 FlexMAP signal", "setting": "Experiment 1, tretinoin-treated HL60, transcript NM_002982, replicate columns", "value": "3488 and 3786 and 3231 and 3797 and 1738 and 3852 and 3752 and 2466 and 3667 and 3451"}, {"measurement": "NM_003132 LUA#68 FlexMAP signal", "setting": "Experiment 1, tretinoin-treated HL60, transcript NM_003132, replicate columns", "value": "488 (2×) and 596 and 410 and 540 and 148 and 523 and 517 and 212 and 467.5"}, {"measurement": "NM_003172 LUA#19 FlexMAP signal", "setting": "Experiment 1, tretinoin-treated HL60, transcript NM_003172, replicate columns", "value": "243 and 276 and 208 and 286 and 86 and 264 and 257 and 121 and 260 and 235"}, {"measurement": "NM_003332 LUA#43 FlexMAP signal", "setting": "Experiment 1, tretinoin-treated HL60, transcript NM_003332, replicate columns", "value": "2387.5 and 2641 and 2219 and 2571.5 and 1100 and 2688.5 and 2573.5 and 1470 and 2528 and 2325"}, {"measurement": "NM_003581 LUA#62 FlexMAP signal", "setting": "Experiment 1, tretinoin-treated HL60, transcript NM_003581, replicate columns", "value": "53 and 57 and 147 and 80 and 50 (2×) and 65 and 52 and 43 and 42"}, {"measurement": "NM_003644 LUA#17 FlexMAP signal", "setting": "Experiment 1, tretinoin-treated HL60, transcript NM_003644, replicate columns", "value": "282 and 272 and 195.5 and 252 and 105 and 266.5 and 259 and 142 and 271.5 and 260"}, {"measurement": "NM_003752 LUA#82 FlexMAP signal", "setting": "Experiment 1, tretinoin-treated HL60, transcript NM_003752, replicate columns", "value": "130.5 and 145.5 and 114 and 144.5 and 71 and 128.5 and 142 and 94 and 137.5 and 124.5"}, {"measurement": "NM_003879 LUA#24 FlexMAP signal", "setting": "Experiment 1, tretinoin-treated HL60, transcript NM_003879, replicate columns", "value": "72.5 and 77.5 and 57 and 80 (2×) and 41 and 71 and 76 and 53 and 67"}, {"measurement": "NM_004079 LUA#21 FlexMAP signal", "setting": "Experiment 1, tretinoin-treated HL60, transcript NM_004079, replicate columns", "value": "113 and 129 and 93 and 124.5 and 55 and 127 and 122 and 70 and 125.5 and 99.5"}, {"measurement": "NM_004095 LUA#59 FlexMAP signal", "setting": "Experiment 1, tretinoin-treated HL60, transcript NM_004095, replicate columns", "value": "203 and 247 and 148 and 227 and 78 and 212 (2×) and 101 and 214.5 and 194.5"}, {"measurement": "NM_004106 LUA#44 FlexMAP signal", "setting": "Experiment 1, tretinoin-treated HL60, transcript NM_004106, replicate columns", "value": "1187 and 1452 and 994 and 1303 and 373 and 1308 and 1315 and 576.5 and 1274.5 and 1218"}, {"measurement": "NM_004134 LUA#76 FlexMAP signal", "setting": "Experiment 1, tretinoin-treated HL60, transcript NM_004134, replicate columns", "value": "278 and 318 and 207 and 277 and 83.5 and 292 and 306 and 111 and 280 and 266.5"}, {"measurement": "NM_004152 LUA#31 FlexMAP signal", "setting": "Experiment 1, tretinoin-treated HL60, transcript NM_004152, replicate columns", "value": "1944 and 2194 and 1662 and 2073 and 775 and 2127.5 and 2117 and 1110 and 2045 and 1823"}, {"measurement": "NM_004526 LUA#88 FlexMAP signal", "setting": "Experiment 1, tretinoin-treated HL60, transcript NM_004526, replicate columns", "value": "192 and 223 and 150 and 213 and 77 and 208 and 192.5 and 101 and 206.5 and 182.5"}, {"measurement": "NM_004602 LUA#32 FlexMAP signal", "setting": "Experiment 1, tretinoin-treated HL60, transcript NM_004602, replicate columns", "value": "215.5 and 258 and 182 and 239 and 88 and 232.5 and 227.5 and 113.5 and 224 and 212"}, {"measurement": "NM_004723 LUA#20 FlexMAP signal", "setting": "Experiment 1, tretinoin-treated HL60, transcript NM_004723, replicate columns", "value": "380 and 446 and 318 and 394 and 127 and 418.5 and 388.5 and 184 and 400 and 363.5"}, {"measurement": "NM_004741 LUA#89 FlexMAP signal", "setting": "Experiment 1, tretinoin-treated HL60, transcript NM_004741, replicate columns", "value": "205 and 208 and 168 and 215 and 100 and 204 and 198 and 116 and 214 and 204.5"}, {"measurement": "NM_004759 LUA#37 FlexMAP signal", "setting": "Experiment 1, tretinoin-treated HL60, transcript NM_004759, replicate columns", "value": "116 and 149.5 and 148 and 139.5 and 53 and 128 and 141 and 67 and 134 and 103"}, {"measurement": "NM_005008 LUA#77 FlexMAP signal", "setting": "Experiment 1, tretinoin-treated HL60, transcript NM_005008, replicate columns", "value": "343 and 416 and 307 and 392 and 123 and 401 and 382.5 and 167 and 372 and 338.5"}, {"measurement": "NM_005375 LUA#86 FlexMAP signal", "setting": "Experiment 1, tretinoin-treated HL60, transcript NM_005375, replicate columns", "value": "780.5 and 638 and 523 and 594.5 and 238 and 631.5 and 617 and 351 and 734 and 717"}, {"measurement": "NM_005566 LUA#85 FlexMAP signal", "setting": "Experiment 1, tretinoin-treated HL60, transcript NM_005566, replicate columns", "value": "540 and 632.5 and 583.5 and 642 and 150 and 607 and 596 and 219 and 577 and 523.5"}, {"measurement": "NM_005914 LUA#60 FlexMAP signal", "setting": "Experiment 1, tretinoin-treated HL60, transcript NM_005914, replicate columns", "value": "881.5 and 948 and 566.5 and 843 and 209 and 866 and 848.5 and 351 and 885 and 795"}, {"measurement": "NM_005915 LUA#72 FlexMAP signal", "setting": "Experiment 1, tretinoin-treated HL60, transcript NM_005915, replicate columns", "value": "44 (2×) and 59 and 39 and 54 and 34.5 and 56 and 41 and 51 and 47"}]}]}
